Counter-ions that a name gives are not always drawn.
Experiment: Remaining amount of each vitamin after 6 months storage at room temperature, measured by HPLC
Type: physicochemical
Details: vitamin in Example 3 infusion preparation before mixing, stored at room temperature for 6 months
Protocol: The infusion preparation (before mixing the first-chamber. infusion and the second-chamber infusion) was stored at room temperature for 6 months. Thereafter, the amount of each vitamin component contained in the first-chamber infusion or the second-chamber infusion was measured using HPLC. […] As is clear from the results, each of the vitamin components can be stably present in the infusion preparation even after 6 months storage.

Molecule	Remaining rate after 6 months storage (%)
O=C(O)CCCC[C@@H]1SC[C@@H]2NC(=O)N[C@@H]21 [Biotin]	97.8
Nc1nc2ncc(CNc3ccc(C(=O)N[C@@H](CCC(=O)O)C(=O)O)cc3)nc2c(=O)[nH]1 [Folic acid]	100.0
Cyanocobalamin	103.2
Cc1ncc(CO)c(CO)c1O.Cl [Pyridoxine hydrochloride]	99.3
CC(C)(CO)[C@@H](O)C(=O)NCCCO [Panthenol]	100.4
NC(=O)c1cccnc1 [Nicotinamide]	99.6
O=C1O[C@H]([C@@H](O)CO)C(O)=C1O [Ascorbic acid]	99.9
C=C1CC[C@H](O)C/C1=C/C=C1\CCC[C@]2(C)[C@@H]([C@H](C)CCCC(C)C)CC[C@@H]12 [Cholecalciferol]	100.5

Next, values leading:

Remaining rate after 6 months storage (%)	Molecule
100.1	Cc1cc2nc3c(=O)[nH]c(=O)nc-3n(C[C@H](O)[C@H](O)[C@H](O)COP(=O)(O)O)c2cc1C [Riboflavin sodium phosphate]
99.0	CC(=O)Oc1c(C)c(C)c2c(c1C)CCC(C)(CCC[C@H](C)CCC[C@H](C)CCCC(C)C)O2 (stereo partly drawn) [Tocopherol acetate]
101.5	CC1=C(C/C=C(\C)CCC[C@H](C)CCC[C@H](C)CCCC(C)C)C(=O)c2ccccc2C1=O [Phytonadione]
98.7	Cc1ncc(C[n+]2csc(CCO)c2C)c(N)n1 [Thiamine chloride hydrochloride]

Reference: patent US20170304530A1, “INFUSION PREPARATION” (priority 2010, published 2017)
